Test results published in publication PMC5218480 (PLoS ONE, 2017).

System: MV-4-11 cells
Experiment: Gene expression microarray analysis (Affymetrix PrimeView) and GSEA
Type: cell-based, human
Design: RFU PODN (11730768_x_at) / Fold change /veh PODN (11730768_x_at) / RFU LINC00158 (11744669_a_at) / Fold change /veh LINC00158 (11744669_a_at) / RFU DUSP10 (11751237_a_at) / Fold change /veh DUSP10 (11751237_a_at) / RFU ID3 (11757404_x_at) / Fold change /veh ID3 (11757404_x_at) / RFU PLEKHG5 (11737974_s_at) / Fold change /veh PLEKHG5 (11737974_s_at) / RFU LRRC4B (11730491_at) / Fold change /veh LRRC4B (11730491_at) / RFU GIMAP4 (11747438_a_at) / Fold change /veh GIMAP4 (11747438_a_at) / RFU KRT8 (11758183_x_at) / Fold change /veh KRT8 (11758183_x_at) / RFU CNN1 (11734310_a_at) / Fold change /veh CNN1 (11734310_a_at) / RFU VPS37D (11726825_at) / Fold change /veh VPS37D (11726825_at) / RFU C10orf10 (11716522_x_at) / Fold change /veh C10orf10 (11716522_x_at) / RFU KIR2DL2 /// KIR2DL4 /// KIR2DL5A /// KIR2DL5B /// KIR2DS1 /// KIR2DS2 /// KIR2DS3 /// KIR2DS4 /// KIR3DL3 /// KIR3DL3 /// KIR3DS1 (11738374_at) / Fold change /veh KIR2DL2 /// KIR2DL4 /// KIR2DL5A /// KIR2DL5B /// KIR2DS1 /// KIR2DS2 /// KIR2DS3 /// KIR2DS4 /// KIR3DL3 /// KIR3DL3 /// KIR3DS1 (11738374_at) / RFU C1QL1 (11718748_at) / Fold change /veh C1QL1 (11718748_at) / RFU TMPRSS4 (11747572_a_at) / Fold change /veh TMPRSS4 (11747572_a_at) / RFU HAMP (11756126_x_at) / Fold change /veh HAMP (11756126_x_at) / RFU RNFT2 (11725882_a_at) / Fold change /veh RNFT2 (11725882_a_at) / RFU NR4A2 (11747474_a_at) / Fold change /veh NR4A2 (11747474_a_at) / RFU ABCC12 (11746883_a_at) / Fold change /veh ABCC12 (11746883_a_at) / RFU TMEM136 (11760407_x_at) / Fold change /veh TMEM136 (11760407_x_at) / RFU CLDN22 /// WWC2 (11732394_at) / Fold change /veh CLDN22 /// WWC2 (11732394_at) / RFU HLA-DPB1 (11760878_x_at) / Fold change /veh HLA-DPB1 (11760878_x_at) / RFU SPINT1 (11716480_a_at) / Fold change /veh SPINT1 (11716480_a_at) / RFU GAP43 (11754022_s_at) / Fold change /veh GAP43 (11754022_s_at) / RFU A4GNT (11735810_at) / Fold change /veh A4GNT (11735810_at) / RFU PRB3 (11715151_x_at) / Fold change /veh PRB3 (11715151_x_at) / RFU TUBB4B (11761932_at) / Fold change /veh TUBB4B (11761932_at) / RFU CAPN14 (11732068_a_at) / Fold change /veh CAPN14 (11732068_a_at) / RFU TMCC2 (11721928_a_at) / Fold change /veh TMCC2 (11721928_a_at) / RFU IRGQ (11745062_a_at) / Fold change /veh IRGQ (11745062_a_at) / RFU FAM174B (11720279_a_at) / Fold change /veh FAM174B (11720279_a_at) / RFU TMPRSS4 (11748680_a_at) / Fold change /veh TMPRSS4 (11748680_a_at) / RFU FAM212B (11763350_a_at) / Fold change /veh FAM212B (11763350_a_at) / RFU PLEKHG5 (11743358_a_at) / Fold change /veh PLEKHG5 (11743358_a_at) / RFU ZSCAN30 (11745921_a_at) / Fold change /veh ZSCAN30 (11745921_a_at) / RFU CMKLR1 (11741424_a_at) / Fold change /veh CMKLR1 (11741424_a_at) / RFU LOC101060620 /// MAPK8IP1 (11723275_at) / Fold change /veh LOC101060620 /// MAPK8IP1 (11723275_at) / RFU SPTSSB (11747773_x_at) / Fold change /veh SPTSSB (11747773_x_at) / RFU PRSS12 (11739890_at) / Fold change /veh PRSS12 (11739890_at) / RFU BIN1 (11741810_x_at) / Fold change /veh BIN1 (11741810_x_at) / RFU WNT11 (11732464_a_at) / Fold change /veh WNT11 (11732464_a_at) / RFU C10orf10 (11716521_a_at) / Fold change /veh C10orf10 (11716521_a_at) / RFU C5orf56 (11738089_at) / Fold change /veh C5orf56 (11738089_at) / RFU CYB561 (11721691_x_at) / Fold change /veh CYB561 (11721691_x_at) / RFU ANKRD19P (11752326_a_at) / Fold change /veh ANKRD19P (11752326_a_at) / RFU OR2T12 /// OR2T33 /// OR2T8 (11738714_s_at) / Fold change /veh OR2T12 /// OR2T33 /// OR2T8 (11738714_s_at) / RFU VCAN (11748164_a_at) / Fold change /veh VCAN (11748164_a_at) / RFU JSRP1 (11732532_at) / Fold change /veh JSRP1 (11732532_at) / RFU KRTAP10-11 (11738290_x_at) / Fold change /veh KRTAP10-11 (11738290_x_at) / RFU MYO3A (11730013_a_at) / Fold change /veh MYO3A (11730013_a_at) / RFU EBF3 (11725865_a_at) / Fold change /veh EBF3 (11725865_a_at) / RFU CAMK2N1 (11719241_x_at) / Fold change /veh CAMK2N1 (11719241_x_at) / RFU C5orf56 (11738088_a_at) / Fold change /veh C5orf56 (11738088_a_at) / RFU OLFML3 (11715873_a_at) / Fold change /veh OLFML3 (11715873_a_at) / RFU LOC100653217 /// NTM (11731650_a_at) / Fold change /veh LOC100653217 /// NTM (11731650_a_at) / RFU MAPK11 (11762145_a_at) / Fold change /veh MAPK11 (11762145_a_at) / RFU FIZ1 (11724087_x_at) / Fold change /veh FIZ1 (11724087_x_at) / RFU OASL (11726364_x_at) / Fold change /veh OASL (11726364_x_at) / RFU SOX15 (11748057_x_at) / Fold change /veh SOX15 (11748057_x_at) / RFU CD79A (11719716_a_at) / Fold change /veh CD79A (11719716_a_at) / RFU HIST1H1D (11736915_at) / Fold change /veh HIST1H1D (11736915_at) / RFU CASKIN2 (11723855_a_at) / Fold change /veh CASKIN2 (11723855_a_at) / RFU LOC730098 (11760151_x_at) / Fold change /veh LOC730098 (11760151_x_at) / RFU OR4N2 (11742367_at) / Fold change /veh OR4N2 (11742367_at) / RFU PRRT2 (11749266_a_at) / Fold change /veh PRRT2 (11749266_a_at) / RFU SNX32 (11753110_a_at) / Fold change /veh SNX32 (11753110_a_at) / RFU CDHR5 (11726645_a_at) / Fold change /veh CDHR5 (11726645_a_at) / RFU RCAN1 (11760418_a_at) / Fold change /veh RCAN1 (11760418_a_at) / RFU FAM167A (11723789_a_at) / Fold change /veh FAM167A (11723789_a_at) / RFU FAM26E (11764081_at) / Fold change /veh FAM26E (11764081_at) / RFU ISYNA1 (11749810_s_at) / Fold change /veh ISYNA1 (11749810_s_at) / RFU ACY1 (11761880_at) / Fold change /veh ACY1 (11761880_at) / RFU 11764098_at / Fold change /veh 11764098_at / RFU SAMD14 (11745864_x_at) / Fold change /veh SAMD14 (11745864_x_at) / RFU NPB (11741838_a_at) / Fold change /veh NPB (11741838_a_at) / RFU TMPRSS6 (11731388_a_at) / Fold change /veh TMPRSS6 (11731388_a_at) / RFU KRTAP10-2 (11738614_at) / Fold change /veh KRTAP10-2 (11738614_at) / RFU ARHGAP8 /// PRR5-ARHGAP8 (11727945_x_at) / Fold change /veh ARHGAP8 /// PRR5-ARHGAP8 (11727945_x_at) / RFU KRTAP5-7 /// NADSYN1 (11734609_at) / Fold change /veh KRTAP5-7 /// NADSYN1 (11734609_at) / RFU RASL12 (11751679_a_at) / Fold change /veh RASL12 (11751679_a_at) / RFU CDKN2B (11736163_a_at) / Fold change /veh CDKN2B (11736163_a_at) / RFU PRF1 (11729649_at) / Fold change /veh PRF1 (11729649_at) / RFU, ZNF638 /// ZNF638-IT1 / Fold change vs veh, ZNF638 /// ZNF638-IT1 / RFU, PANK3 / Fold change vs veh, PANK3 / RFU, SH3YL1 / Fold change vs veh, SH3YL1 / RFU, ZEB2 / Fold change vs veh, ZEB2 / RFU, NRIP1 / Fold change vs veh, NRIP1 / RFU, PTTG1IP / Fold change vs veh, PTTG1IP / RFU, CAPN2 / Fold change vs veh, CAPN2 / RFU, MED14 / Fold change vs veh, MED14 / RFU, SNORA58 / Fold change vs veh, SNORA58 / RFU, C1orf63 / Fold change vs veh, C1orf63 / RFU, LRRFIP1 / Fold change vs veh, LRRFIP1 / RFU, NDUFAF7 / Fold change vs veh, NDUFAF7 / RFU, SLC12A2 / Fold change vs veh, SLC12A2 / RFU, IBTK / Fold change vs veh, IBTK / RFU, ESF1 / Fold change vs veh, ESF1 / Fold change vs veh, TMEM50B / RFU, TAOK1 / Fold change vs veh, TAOK1 / RFU, ACBD3 / Fold change vs veh, ACBD3 / RFU, TMA16 / Fold change vs veh, TMA16 / RFU, RWDD3 / Fold change vs veh, RWDD3 / RFU, BCAT1 / Fold change vs veh, BCAT1 / RFU, EDEM3 / Fold change vs veh, EDEM3 / RFU, TMEM33 / Fold change vs veh, TMEM33 / RFU, WDR75 / Fold change vs veh, WDR75 / RFU, AHCTF1 / Fold change vs veh, AHCTF1 / RFU, TFRC / Fold change vs veh, TFRC / RFU, ZDHHC17 / Fold change vs veh, ZDHHC17 / RFU, NOM1 / Fold change vs veh, NOM1 / RFU, ARL8B / Fold change vs veh, ARL8B / RFU, ZBTB11 / Fold change vs veh, ZBTB11 / RFU, TAMM41 / Fold change vs veh, TAMM41 / RFU, KIAA1704 /// LOC100996395 / Fold change vs veh, KIAA1704 /// LOC100996395 / RFU, ING1 / Fold change vs veh, ING1 / RFU, TRMT61B / Fold change vs veh, TRMT61B / RFU, FUBP3 / Fold change vs veh, FUBP3 / RFU, TP53 / Fold change vs veh, TP53 / RFU, TNKS2 / Fold change vs veh, TNKS2 / RFU, ZFP14 / Fold change vs veh, ZFP14 / RFU, ACTR2 / Fold change vs veh, ACTR2 / RFU, PPP3R1 / Fold change vs veh, PPP3R1 / RFU, PIK3R1 / Fold change vs veh, PIK3R1 / RFU, HNRNPA1 / Fold change vs veh, HNRNPA1 / RFU, RNF170 / Fold change vs veh, RNF170 / RFU, ZNF28 / Fold change vs veh, ZNF28 / RFU, RNGTT / Fold change vs veh, RNGTT / RFU, OGT / Fold change vs veh, OGT / RFU, BRD1 / Fold change vs veh, BRD1 / RFU, MARS / Fold change vs veh, MARS / RFU, ZNF655 / Fold change vs veh, ZNF655 / RFU, FAHD1 / Fold change vs veh, FAHD1 / RFU, BDP1 / Fold change vs veh, BDP1 / RFU, LRRCC1 / Fold change vs veh, LRRCC1 / RFU, ARID1A / Fold change vs veh, ARID1A / RFU, ZNF146 / Fold change vs veh, ZNF146 / RFU, ZNF330 / Fold change vs veh, ZNF330 / RFU, GPN3 / Fold change vs veh, GPN3 / RFU, C9orf123 / Fold change vs veh, C9orf123 / RFU, N4BP2L2 / Fold change vs veh, N4BP2L2 / RFU, ARFIP1 / Fold change vs veh, ARFIP1 / RFU, FAM179B / Fold change vs veh, FAM179B / RFU, BCL10 / Fold change vs veh, BCL10 / RFU, UHRF1BP1L / Fold change vs veh, UHRF1BP1L / RFU, BET1 / Fold change vs veh, BET1 / RFU, CNOT2 / Fold change vs veh, CNOT2 / RFU, ZNF268 / Fold change vs veh, ZNF268 / Fold change vs veh, ZNF507 / RFU, DGCR2 / Fold change vs veh, DGCR2 / RFU, WDSUB1 / Fold change vs veh, WDSUB1 / Fold change vs veh, HSP90B1 /// MIR3652 / RFU, ADSS / Fold change vs veh, ADSS / RFU, GK / Fold change vs veh, GK / RFU, ZNF148 / Fold change vs veh, ZNF148 / RFU, TAF9 / Fold change vs veh, TAF9 / RFU, SLC1A5 / Fold change vs veh, SLC1A5 / RFU, SLMO2 / Fold change vs veh, SLMO2 / RFU, ABCC4 / Fold change vs veh, ABCC4 / RFU, LOC101060439 /// RAP1B / Fold change vs veh, LOC101060439 /// RAP1B / RFU, RFX7 / Fold change vs veh, RFX7 / RFU, GTPBP10 / Fold change vs veh, GTPBP10 / RFU, CNEP1R1 / Fold change vs veh, CNEP1R1 / RFU, BIVM-ERCC5 /// ERCC5 / Fold change vs veh, BIVM-ERCC5 /// ERCC5 / RFU, ILF3 / Fold change vs veh, ILF3 / RFU 11762660_at / Fold change /veh 11762660_at / RFU VCAN (11757783_s_at) / Fold change /veh VCAN (11757783_s_at) / RFU DDX43 (11728927_at) / Fold change /veh DDX43 (11728927_at) / RFU KRT8 (11758188_x_at) / Fold change /veh KRT8 (11758188_x_at) / RFU NKD1 (11759106_at) / Fold change /veh NKD1 (11759106_at) / RFU SRD5A1 (11742802_a_at) / Fold change /veh SRD5A1 (11742802_a_at) / RFU TPSAB1 /// TPSB2 (11721975_s_at) / Fold change /veh TPSAB1 /// TPSB2 (11721975_s_at) / RFU GSTM3 (11746129_a_at) / Fold change /veh GSTM3 (11746129_a_at) / RFU IL23R (11737362_x_at) / Fold change /veh IL23R (11737362_x_at) / RFU TMEM51 (11727254_a_at) / Fold change /veh TMEM51 (11727254_a_at) / RFU PIWIL2 (11732686_x_at) / Fold change /veh PIWIL2 (11732686_x_at) / RFU ORM1 (11744905_x_at) / Fold change /veh ORM1 (11744905_x_at) / RFU CCDC152 (11743942_at) / Fold change /veh CCDC152 (11743942_at) / RFU ECM1 (11717891_a_at) / Fold change /veh ECM1 (11717891_a_at) / RFU IL23R (11748794_a_at) / Fold change /veh IL23R (11748794_a_at) / RFU TNFAIP8L3 (11732012_x_at) / Fold change /veh TNFAIP8L3 (11732012_x_at) / RFU MBOAT4 (11741988_at) / Fold change /veh MBOAT4 (11741988_at) / RFU 11764193_at / Fold change /veh 11764193_at / RFU TMEM53 (11763286_at) / Fold change /veh TMEM53 (11763286_at) / RFU MAGEB2 (11727129_at) / Fold change /veh MAGEB2 (11727129_at) / RFU TMEM200A (11744735_a_at) / Fold change /veh TMEM200A (11744735_a_at) / RFU CCDC152 (11751479_a_at) / Fold change /veh CCDC152 (11751479_a_at) / RFU FAM211A (11726209_a_at) / Fold change /veh FAM211A (11726209_a_at) / RFU RGS16 (11746705_a_at) / Fold change /veh RGS16 (11746705_a_at) / RFU VCAN (11755009_s_at) / Fold change /veh VCAN (11755009_s_at) / RFU RHOB (11743442_s_at) / Fold change /veh RHOB (11743442_s_at) / RFU RGS16 (11720943_a_at) / Fold change /veh RGS16 (11720943_a_at) / RFU RGS16 (11720944_at) / Fold change /veh RGS16 (11720944_at) / RFU, VPS4B / Fold change vs veh, VPS4B / RFU, CREB1 / Fold change vs veh, CREB1 / RFU, DNAJC13 / Fold change vs veh, DNAJC13 / RFU, GNAQ / Fold change vs veh, GNAQ / RFU, CDK5R1 / Fold change vs veh, CDK5R1 / RFU, ZRANB3 / Fold change vs veh, ZRANB3 / RFU, CUL4A / Fold change vs veh, CUL4A / RFU, CCNY / Fold change vs veh, CCNY / RFU, UFL1 / Fold change vs veh, UFL1 / RFU, COG3 / Fold change vs veh, COG3 / RFU, DIAPH2 / Fold change vs veh, DIAPH2 / RFU, SKA2 / Fold change vs veh, SKA2 / RFU, AFF3 / Fold change vs veh, AFF3 / RFU, LMF1 / Fold change vs veh, LMF1 / RFU, IPO11 / Fold change vs veh, IPO11 / RFU, DFFB / Fold change vs veh, DFFB / RFU, FOXP1 / Fold change vs veh, FOXP1 / RFU, CARD8 / Fold change vs veh, CARD8 / RFU, STRN3 / Fold change vs veh, STRN3 / RFU, ADK / Fold change vs veh, ADK / RFU, RASSF2 / Fold change vs veh, RASSF2 / RFU, WIPF1 / Fold change vs veh, WIPF1 / RFU, LARP1B / Fold change vs veh, LARP1B / RFU, RASA1 / Fold change vs veh, RASA1 / RFU, RB1 / Fold change vs veh, RB1 / RFU, PPFIA1 / Fold change vs veh, PPFIA1 / RFU, MAT2A / Fold change vs veh, MAT2A / RFU, CCT5 / Fold change vs veh, CCT5 / RFU, WDR92 / Fold change vs veh, WDR92 / RFU, CUX1 / Fold change vs veh, CUX1 / RFU, TTC7A / Fold change vs veh, TTC7A / RFU, TMEM135 / Fold change vs veh, TMEM135 / RFU, DEPTOR / Fold change vs veh, DEPTOR / RFU, CPM / Fold change vs veh, CPM / RFU, DNAJB6 / Fold change vs veh, DNAJB6 / RFU, CACNA2D3 / Fold change vs veh, CACNA2D3 / RFU, DTX4 / Fold change vs veh, DTX4 / RFU, TFCP2 / Fold change vs veh, TFCP2 / RFU, GMCL1 /// GMCL1P1 / Fold change vs veh, GMCL1 /// GMCL1P1 / RFU, AEBP2 / Fold change vs veh, AEBP2 / RFU, SNHG1 /// SNORD22 /// SNORD25 /// SNORD26 /// SNORD27 /// SNORD28 /// SNORD29 /// SNORD31 / Fold change vs veh, SNHG1 /// SNORD22 /// SNORD25 /// SNORD26 /// SNORD27 /// SNORD28 /// SNORD29 /// SNORD31 / Fold change (Aza/veh), C12orf56 (ProbeSet 11735607_a_at) / Fold change (ACY-1035/veh), C12orf56 (ProbeSet 11735607_a_at) / Fold change (Aza/veh), FGFR1OP (ProbeSet 11751329_s_at) / Fold change (ACY-1035/veh), FGFR1OP (ProbeSet 11751329_s_at) / Fold change (Aza/veh), VPS36 (ProbeSet 11739960_a_at) / Fold change (ACY-1035/veh), VPS36 (ProbeSet 11739960_a_at) / RFU SYPL1 (11715823_x_at) / Fold change /veh SYPL1 (11715823_x_at) / RFU IGFBP7 (11715501_s_at) / Fold change /veh IGFBP7 (11715501_s_at) / RFU REEP3 (11722064_at) / Fold change /veh REEP3 (11722064_at) / RFU IGLL1 (11728026_x_at) / Fold change /veh IGLL1 (11728026_x_at): dose or concentration left out as unconfirmed
Conditions: ProbeSet 11716331_a_at; LIST D

Nc1ncn([C@@H]2O[C@H](CO)[C@@H](O)[C@H]2O)c(=O)n1 [azacitidine]
RFU, DNAJB6: 212.79 RFU
